Experimental data: ChEMBL document CHEMBL3991601, “The target landscape of clinical kinase drugs” (Science, 2017)
The source made the active and inactive calls.

Columns and labels:
[1] = molecular target: T1, Ephrin type-B receptor 2 (Homo sapiens, UniProt P29323)
T1 sequence (P29323 whole entry): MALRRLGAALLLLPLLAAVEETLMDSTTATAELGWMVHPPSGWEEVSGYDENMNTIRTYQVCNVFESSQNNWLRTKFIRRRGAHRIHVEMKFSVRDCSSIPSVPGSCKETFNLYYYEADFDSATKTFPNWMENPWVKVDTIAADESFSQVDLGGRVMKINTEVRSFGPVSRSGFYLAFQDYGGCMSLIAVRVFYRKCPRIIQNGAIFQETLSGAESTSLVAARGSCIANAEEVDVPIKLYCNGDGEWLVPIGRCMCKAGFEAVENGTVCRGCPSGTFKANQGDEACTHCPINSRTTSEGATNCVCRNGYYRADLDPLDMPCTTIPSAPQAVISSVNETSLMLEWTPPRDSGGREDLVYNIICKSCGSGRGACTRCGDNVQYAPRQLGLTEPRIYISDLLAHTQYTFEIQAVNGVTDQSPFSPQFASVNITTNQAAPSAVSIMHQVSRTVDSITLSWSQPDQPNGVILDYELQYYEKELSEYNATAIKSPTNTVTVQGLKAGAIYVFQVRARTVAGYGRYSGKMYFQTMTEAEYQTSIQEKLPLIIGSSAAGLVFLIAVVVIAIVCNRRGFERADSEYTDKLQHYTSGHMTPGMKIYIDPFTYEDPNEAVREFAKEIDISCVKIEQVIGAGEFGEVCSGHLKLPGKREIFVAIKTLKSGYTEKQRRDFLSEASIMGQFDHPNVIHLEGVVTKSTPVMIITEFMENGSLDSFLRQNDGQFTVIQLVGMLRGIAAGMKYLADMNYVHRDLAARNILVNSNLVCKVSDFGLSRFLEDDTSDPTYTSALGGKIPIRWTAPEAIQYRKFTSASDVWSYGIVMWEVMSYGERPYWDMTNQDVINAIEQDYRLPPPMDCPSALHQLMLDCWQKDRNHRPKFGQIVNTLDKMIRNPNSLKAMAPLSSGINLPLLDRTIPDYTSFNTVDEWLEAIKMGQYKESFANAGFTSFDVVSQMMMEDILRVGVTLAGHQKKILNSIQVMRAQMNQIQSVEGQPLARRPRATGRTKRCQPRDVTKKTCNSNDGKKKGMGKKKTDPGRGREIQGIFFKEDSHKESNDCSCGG

[2] = molecular target: T2, Calcium/calmodulin-dependent protein kinase type IV (Homo sapiens, UniProt Q16566)
T2 sequence (Q16566 whole entry): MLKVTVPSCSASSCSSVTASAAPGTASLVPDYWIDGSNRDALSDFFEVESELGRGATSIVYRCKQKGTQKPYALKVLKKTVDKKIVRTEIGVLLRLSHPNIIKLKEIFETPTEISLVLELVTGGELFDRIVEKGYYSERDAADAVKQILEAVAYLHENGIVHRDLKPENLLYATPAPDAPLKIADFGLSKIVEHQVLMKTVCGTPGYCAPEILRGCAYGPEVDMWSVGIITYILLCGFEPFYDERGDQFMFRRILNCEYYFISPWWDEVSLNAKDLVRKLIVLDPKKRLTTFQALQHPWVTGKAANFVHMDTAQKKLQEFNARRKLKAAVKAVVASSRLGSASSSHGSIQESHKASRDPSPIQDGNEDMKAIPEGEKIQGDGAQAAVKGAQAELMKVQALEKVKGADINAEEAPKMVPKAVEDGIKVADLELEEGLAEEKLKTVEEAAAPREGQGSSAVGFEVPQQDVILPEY

[3] = molecular target: T3, Electron transfer flavoprotein subunit beta (Homo sapiens, UniProt P38117)
T3 sequence (P38117 whole entry): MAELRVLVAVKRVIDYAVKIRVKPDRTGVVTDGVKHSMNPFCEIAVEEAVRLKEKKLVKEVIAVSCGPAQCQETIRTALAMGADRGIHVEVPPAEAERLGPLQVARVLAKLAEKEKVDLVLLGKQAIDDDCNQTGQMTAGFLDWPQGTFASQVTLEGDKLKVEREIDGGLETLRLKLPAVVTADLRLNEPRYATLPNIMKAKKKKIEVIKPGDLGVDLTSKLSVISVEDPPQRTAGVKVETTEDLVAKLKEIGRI

[4] = molecular target: T4, Pyridoxal kinase (Homo sapiens, UniProt O00764)
T4 sequence (O00764 whole entry): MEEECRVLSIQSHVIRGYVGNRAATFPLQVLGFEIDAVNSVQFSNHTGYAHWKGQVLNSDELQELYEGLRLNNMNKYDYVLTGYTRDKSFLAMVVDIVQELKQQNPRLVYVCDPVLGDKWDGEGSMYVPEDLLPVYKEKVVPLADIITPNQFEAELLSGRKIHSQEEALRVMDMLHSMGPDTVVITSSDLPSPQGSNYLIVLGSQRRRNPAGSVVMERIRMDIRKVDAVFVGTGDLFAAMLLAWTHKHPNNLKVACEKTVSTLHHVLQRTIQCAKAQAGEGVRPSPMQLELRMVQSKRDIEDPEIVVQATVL

[5] = molecular target: T5, Acyl-CoA dehydrogenase family member 11 (Homo sapiens, UniProt Q709F0)
T5 sequence (Q709F0 whole entry): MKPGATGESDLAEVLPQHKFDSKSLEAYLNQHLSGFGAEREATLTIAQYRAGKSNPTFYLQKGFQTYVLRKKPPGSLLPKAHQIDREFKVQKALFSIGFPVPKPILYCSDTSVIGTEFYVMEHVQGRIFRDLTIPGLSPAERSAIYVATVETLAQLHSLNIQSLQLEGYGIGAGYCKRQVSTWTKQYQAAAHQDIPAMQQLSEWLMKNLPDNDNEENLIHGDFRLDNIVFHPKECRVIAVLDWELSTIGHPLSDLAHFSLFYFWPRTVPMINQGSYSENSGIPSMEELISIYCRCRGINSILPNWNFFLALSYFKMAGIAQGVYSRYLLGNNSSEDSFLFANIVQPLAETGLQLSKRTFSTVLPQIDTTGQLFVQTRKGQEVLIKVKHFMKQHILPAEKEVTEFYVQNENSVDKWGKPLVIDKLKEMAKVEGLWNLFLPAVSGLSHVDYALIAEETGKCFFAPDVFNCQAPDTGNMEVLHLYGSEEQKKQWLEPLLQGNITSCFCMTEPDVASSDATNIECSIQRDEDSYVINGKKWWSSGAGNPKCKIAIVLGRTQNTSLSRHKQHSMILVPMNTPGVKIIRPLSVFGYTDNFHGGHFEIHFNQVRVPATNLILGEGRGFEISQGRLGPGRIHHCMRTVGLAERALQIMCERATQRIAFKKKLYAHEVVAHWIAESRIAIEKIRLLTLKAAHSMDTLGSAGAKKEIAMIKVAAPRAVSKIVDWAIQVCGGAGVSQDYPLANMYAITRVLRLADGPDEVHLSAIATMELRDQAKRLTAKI

[6] = molecular target: Casein kinase I isoform epsilon (Homo sapiens, UniProt P49674)
[7] = molecular target: Ribosomal protein S6 kinase alpha-1 (Homo sapiens, UniProt Q15418)
Further: in the data inactive means no Kd found up to 30 µM.

Ribosomal protein S6 kinase alpha-1, sequence (Q15418 whole entry): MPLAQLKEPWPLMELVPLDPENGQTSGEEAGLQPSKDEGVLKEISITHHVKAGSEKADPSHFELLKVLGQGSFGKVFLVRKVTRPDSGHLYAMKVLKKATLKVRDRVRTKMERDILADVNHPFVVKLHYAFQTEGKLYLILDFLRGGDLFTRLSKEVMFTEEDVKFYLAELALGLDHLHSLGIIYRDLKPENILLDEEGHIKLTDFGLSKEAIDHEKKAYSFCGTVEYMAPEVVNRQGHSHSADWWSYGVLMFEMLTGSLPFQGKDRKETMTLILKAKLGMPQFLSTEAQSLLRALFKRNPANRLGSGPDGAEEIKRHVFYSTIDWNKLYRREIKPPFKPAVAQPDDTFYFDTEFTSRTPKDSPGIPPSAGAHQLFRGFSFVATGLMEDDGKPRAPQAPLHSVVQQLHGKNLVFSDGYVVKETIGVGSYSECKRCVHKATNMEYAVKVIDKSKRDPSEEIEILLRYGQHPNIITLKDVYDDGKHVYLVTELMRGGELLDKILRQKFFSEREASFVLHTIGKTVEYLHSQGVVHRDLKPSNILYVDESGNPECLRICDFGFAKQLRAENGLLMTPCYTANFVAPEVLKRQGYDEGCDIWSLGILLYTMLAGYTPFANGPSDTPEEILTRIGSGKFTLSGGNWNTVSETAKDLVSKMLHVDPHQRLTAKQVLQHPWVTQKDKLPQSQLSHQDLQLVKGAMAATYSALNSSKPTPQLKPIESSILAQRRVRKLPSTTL
Casein kinase I isoform epsilon, sequence (P49674 whole entry, canonical isoform): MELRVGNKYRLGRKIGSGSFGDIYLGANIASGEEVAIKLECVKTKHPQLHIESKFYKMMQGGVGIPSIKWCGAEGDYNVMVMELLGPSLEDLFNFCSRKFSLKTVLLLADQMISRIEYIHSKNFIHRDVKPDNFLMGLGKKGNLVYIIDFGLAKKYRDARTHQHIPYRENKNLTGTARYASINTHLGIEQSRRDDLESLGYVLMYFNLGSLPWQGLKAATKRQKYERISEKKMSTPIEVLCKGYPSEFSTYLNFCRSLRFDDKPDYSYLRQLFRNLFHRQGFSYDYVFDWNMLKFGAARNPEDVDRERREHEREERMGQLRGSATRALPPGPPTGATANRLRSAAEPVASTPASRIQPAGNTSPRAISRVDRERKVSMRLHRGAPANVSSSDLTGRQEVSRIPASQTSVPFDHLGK

Row | SMILES | Kd [1] | Kd [2] | Kd [3] | Kd [4] | Kd [5] | Kd [6] | Kd [7]
1 | Cn1cc(-c2[nH]c3cc(NC(=O)[C@H](N)C4CCCCC4)cc4c3c2C=NNC4=O)cn1 | > 30 µM (inactive) | > 30 µM (inactive) | > 30 µM (inactive) | > 30 µM (inactive) | > 30 µM (inactive) | > 30 µM (inactive) | 5.2 µM
2 | Cc1c(NC(=O)OC[C@@H]2COCCN2)cn2ncnc(Nc3ccc4c(cnn4Cc4cccc(F)c4)c3)c12 [AC-480] | > 30 µM (inactive) | > 30 µM (inactive) | > 30 µM (inactive) | > 30 µM (inactive) | > 30 µM (inactive) | > 30 µM (inactive) | > 30 µM (inactive)
3 | C=CCn1c(=O)c2cnc(Nc3ccc(N4CCN(C)CC4)cc3)nc2n1-c1cccc(C(C)(C)O)n1 [ADAVOSERTIB] | > 30 µM (inactive) | > 30 µM (inactive) | > 30 µM (inactive) | > 30 µM (inactive) | > 30 µM (inactive) | > 30 µM (inactive) | > 30 µM (inactive)
4 | CN(C)C/C=C/C(=O)Nc1cc2c(Nc3ccc(F)c(Cl)c3)ncnc2cc1O[C@H]1CCOC1 [AFATINIB] |  |  | > 30 µM (inactive) | > 30 µM (inactive) | > 30 µM (inactive) |  | 
5 | CCc1cc2c(cc1N1CCC(N3CCOCC3)CC1)C(C)(C)c1[nH]c3cc(C#N)ccc3c1C2=O [ALECTINIB] | > 30 µM (inactive) | > 30 µM (inactive) | > 30 µM (inactive) | > 30 µM (inactive) | > 30 µM (inactive) | > 30 µM (inactive) | > 30 µM (inactive)
6 | COc1ccc2c(OCc3nnc4ccc(-c5ccccc5)nn34)ccnc2c1 [AMG-208] | > 30 µM (inactive) | > 30 µM (inactive) | > 30 µM (inactive) | > 30 µM (inactive) | > 30 µM (inactive) | > 30 µM (inactive) | > 30 µM (inactive)
7 | S=C(NCc1ccc2c(c1)OCO2)N1CCN(c2ncnc3c2oc2ccccc23)CC1 [AMUVATINIB] | > 30 µM (inactive) |  | > 30 µM (inactive) | > 30 µM (inactive) | > 30 µM (inactive) | > 30 µM (inactive) | > 30 µM (inactive)
8 | NC[C@@](O)(c1ccc(Cl)cc1)c1ccc(-c2cn[nH]c2)cc1 [AT-13148] | > 30 µM (inactive) | > 30 µM (inactive) | > 30 µM (inactive) | > 30 µM (inactive) | > 30 µM (inactive) | > 30 µM (inactive) | > 30 µM (inactive)
9 | Cc1cc(Nc2nc(N[C@@H](C)c3ncc(F)cn3)ncc2Cl)n[nH]1 [AZD-1480] | > 30 µM (inactive) | > 30 µM (inactive) | > 30 µM (inactive) | > 30 µM (inactive) | > 30 µM (inactive) | > 30 µM (inactive) | > 30 µM (inactive)
10 | CCN(CCCOc1ccc2c(Nc3cc(CC(=O)Nc4cccc(F)c4)n[nH]3)ncnc2c1)CCOP(=O)(O)O [BARASERTIB] | > 30 µM (inactive) | > 30 µM (inactive) | > 30 µM (inactive) | > 30 µM (inactive) | > 30 µM (inactive) | > 30 µM (inactive) | > 30 µM (inactive)
11 | COc1ccc(-c2ccc3ncc4c(c3c2)n(-c2ccc(N3CCNCC3)c(C(F)(F)F)c2)c(=O)n4C)cn1 [BGT-226 FREE BASE] | > 30 µM (inactive) | > 30 µM (inactive) | > 30 µM (inactive) | > 30 µM (inactive) | > 30 µM (inactive) | > 30 µM (inactive) | > 30 µM (inactive)
12 | C[C@@]1(C(=O)Nc2ccc(F)nc2)CCCN1c1nc(Nc2cc(C3CC3)n[nH]2)c2cccn2n1 [BMS-754807] |  |  | > 30 µM (inactive) | > 30 µM (inactive) | > 30 µM (inactive) |  | 
13 | COc1cc2c(Oc3ccc4[nH]c(C)cc4c3F)ncnc2cc1OCCCN1CCCC1 [CEDIRANIB] |  |  | > 30 µM (inactive) | > 30 µM (inactive) | > 30 µM (inactive) |  | 
14 | N#CCNC(=O)c1ccc(-c2ccnc(Nc3ccc(N4CCOCC4)cc3)n2)cc1 [MOMELOTINIB] | > 30 µM (inactive) | > 30 µM (inactive) | > 30 µM (inactive) | > 30 µM (inactive) | > 30 µM (inactive) | > 30 µM (inactive) | 
15 | CC1(C)CNc2cc(NC(=O)c3cccnc3NCc3ccncc3)ccc21 [MOTESANIB] |  |  | > 30 µM (inactive) | > 30 µM (inactive) | > 30 µM (inactive) |  | 
16 | C=CC(=O)Nc1cc(Nc2nccc(-c3cn(C)c4ccccc34)n2)c(OC)cc1N(C)CCN(C)C [OSIMERTINIB] | > 30 µM (inactive) | > 30 µM (inactive) | > 30 µM (inactive) | > 30 µM (inactive) |  | > 30 µM (inactive) | > 30 µM (inactive)
17 | Cn1cnc2c(F)c(Nc3ccc(Br)cc3Cl)c(C(=O)NOCCO)cc21 [SELUMETINIB] |  |  | > 30 µM (inactive) | > 30 µM (inactive) | > 30 µM (inactive) |  | 
18 | O=C(O)c1ccc2c(c1)nc(Nc1cccc(Cl)c1)c1ccncc12 [SILMITASERTIB] | > 30 µM (inactive) | > 30 µM (inactive) | > 30 µM (inactive) | > 30 µM (inactive) |  | > 30 µM (inactive) | 5.92 µM (active)
19 | COc1cc2c(N3CCN(C(=O)Nc4ccc(OC(C)C)cc4)CC3)ncnc2cc1OCCCN1CCCCC1 [TANDUTINIB] |  |  | > 30 µM (inactive) | > 30 µM (inactive) | > 30 µM (inactive) |  | 
20 | CNC(=O)c1cc(COc2nnc(Nc3ccc(Cl)cc3)c3ccoc23)ccn1 [TELATINIB] | > 30 µM (inactive) | > 30 µM (inactive) | > 30 µM (inactive) | > 30 µM (inactive) |  | > 30 µM (inactive) | > 30 µM (inactive)
